# Marks after values point to notes of the source that are not given here.
# Legend:
# [1] = system: SD rats; test: Oral glucose tolerance test (OGTT) in rats; single injection; 1 mg/kg; assay type: in vivo; conditions: for Blood Glucose AUC (mg/dL*min) Mean: 1 mg/Kg
# Method: (§1) Animals were divided into three groups—a normal control group, a test group and a third semaglutide group, with 4 animals in each group. The animals were fasted for 12 hours before initiation of OGTT. To the test group animals, the Compound 1 was injected subcutaneously at 1 mg/kg dose. To the semaglutide group, a dose of 1 mg/kg was injected subcutaneously. After 22 hrs, 166 hrs and 334 hrs of subcutaneous injection of test drug or semaglutide, blood glucose was measured with blood glucose meter (time 0 measurements). All the animals were then given 2 g/kg of glucose solution orally. Blood glucose was measured at 20, 40, 60, 90 and 120 minutes following glucose challenge. Body weight and food intake was recorded. Blood glucose data was analyzed using Two way ANOVA followed by Bonferroni posttests using PRISM (Graph Pad version 5.03). Data of Blood glucose AUC0-120 min, was analyzed using t test.
# as §1, with “animals,” for “animals, the”, “1, Compound 13 and Compound 16 were” for “1 was”, “compound” for “drug”
# [2] = Food intake and body weight recorded in the rat OGTT study; assay type: in vivo, rats; conditions: for Body Weight Change (%) Mean / Food Consumption (g) Mean: 1 mg/Kg
# Method: as §1
# as §1, with “animals,” for “animals, the”, “1, Compound 13 and Compound 16 were” for “1 was”, “compound” for “drug”
# [3] = system: db/db type 2 diabetic mice; test: Reduction of HbA1c in db/db type 2 diabetic mice after chronic treatment (27 day study); assay type: in vivo; conditions: db/db mice
# Method: This study was done in diabetic mouse model. The animals were divided into three treatment groups—a diabetic control group, a test group and a semaglutide treatment group. Compound 1 of the present disclosure was injected subcutaneously at 0.3 mg/kg dose once a day for 3 days (qd*3) followed by 0.1 mg/kg dose every alternate day for 7 doses (q2d*7) followed by 0.1 mg/kg dose once every four days for two dose cycles (q4d*2). The same dosage regimen was administered in semaglutide treatment group. Measurements of blood glucose levels and body weight were done daily. % HbA1c was measured on Day 0, day 7, day 14 and day 27 by column chromatography. Cumulative food intake was calculated on day 27. % HbA1C data was analyzed by two way ANOVA followed by Bonferroni's posttests using PRISM (Graph Pad version 5.03).
# [4] = system: db/db mice (diabetic mouse model); test: Separate db/db diabetic mouse study, q2d*15 up to day 28, recovery period day 29 to day 45; assay type: in vivo
# Method: The study was performed in similar manner as above on diabetic mouse model. The animals were divided into three treatment groups—a diabetic control group, a test group and a semaglutide treatment group. The representative compounds of the present disclosure, Compound 1, Compound 13 and Compound 16, were injected subcutaneously at 3.04 or 6.078 nM dose (every alternate day up to day 28 (q2d*15). The same dosage regimen was administered in semaglutide treatment group. Measurements of blood glucose levels and body weight were done daily. % HbA1c, Insulin was measured on Day 0, day 14 and day 29. Cumulative food intake and body weight change was calculated on day 14 and 29. % HbA1c, Insulin data was analyzed by two way ANOVA followed by Bonferroni's posttests using PRISM (Graph Pad version 5.03). Whereas Blood Glucose AUC, Body weight change and Cumulative food intake data was analyzed by one way ANOVA followed by Bonferroni's posttests using PRISM (Graph Pad version 5.03). From day 29 to day 45, animals were kept on recovery period during which no drug treatment was given. Blood Glucose and Body weight was measured during this period. On day 45, Body weight Changes, % HbA1c, Insulin was measured.
# [5] = rats, 1 mg/kg s.c. single injection, Day 2
# [6] = rats, 1 mg/kg s.c. single injection, Day 4
# [7] = recovery period, earlier dose 12.155 nM
# [8] = recovery study, day 45, earlier dose 12.155 nM
substance,measurement,setting,value
Semaglutide [reference compound],% Glucose Reduction (Blood Glucose AUC0-120 min),"[1]; OGTT, 1 mg/Kg dose, after 24 hrs",49.3%
same,Blood Glucose AUC (mg/dL*min) Mean,"[1]; OGTT, 22 hr, Exp. 1",5458.0 mg·min/dL
same,Blood Glucose AUC (mg/dL*min) Mean,"[1]; OGTT, 22 hr, Exp. 2",4258 mg·min/dL
same,Blood Glucose AUC (mg/dL*min) Mean,"[1]; OGTT, 168 hr, Exp. 1",12785.0 mg·min/dL
same,Blood Glucose AUC (mg/dL*min) Mean,"[1]; OGTT, 168 hr, Exp. 2",7410 mg·min/dL
same,Blood Glucose AUC (mg/dL*min) Mean,"[1]; OGTT, 336 hr, Exp. 1",16223.0 mg·min/dL
same,Blood Glucose AUC (mg/dL*min) Mean,"[1]; OGTT, 336 hr, Exp. 2",8023.0 mg·min/dL
same,reduction in blood glucose AUC,"[1]; after 168 hrs of injection, 1 mg/kg",about 25%
same,Body Weight Change (%) Mean,"[2]; 48 h, Exp. 1",−6.5%
same,Food Consumption (g) Mean,"[2]; 48 h, Exp. 1",17.5 g
same,Body Weight Change (%) Mean,"[2]; 48 h, Exp. 2",−8.7%
same,Food Consumption (g) Mean,"[2]; 48 h, Exp. 2",19.3 g
same,Body Weight Change (%) Mean,"[2]; 154 h, Exp. 1",4.5%
same,Food Consumption (g) Mean,"[2]; 154 h, Exp. 1",86.3 g
same,Body Weight Change (%) Mean,"[2]; 154 h, Exp. 2",0.2%
same,Food Consumption (g) Mean,"[2]; 154 h, Exp. 2",50.4 g
same,Body Weight Change (%) Mean,"[2]; 324 h, Exp. 1",11.8%
same,Food Consumption (g) Mean,"[2]; 324 h, Exp. 1",107.9 g
same,Body Weight Change (%) Mean,"[2]; 324 h, Exp. 2",3.8%
same,Food Consumption (g) Mean,"[2]; 324 h, Exp. 2",96.8 g
same,Body Weight (Day 2) % Change vs Baseline,[2]; [5],−7.65%
same,Body Weight (g) (Day 2) Mean,[2]; [5],428.1 g
same,Body Weight (Day 4) % Change vs Baseline,[2]; [6],−5.3%
same,Body Weight (g) (Day 4) Mean,[2]; [6],427.2 g
same,Food Consumption (g) (day 0 to day 2) Mean,"[2]; rats, 1 mg/kg s.c. single injection, day 0 to day 2",5.03*** g
same,Food Consumption (g) (day 0 to day 4) Mean,"[2]; rats, 1 mg/kg s.c. single injection, day 0 to day 4",55.73*** g
same,cumulative food intake vs diabetic control group,[3]; 0 to 27th day (FIG. 8),statistically significant reduction in food intake
same,% HbA1c Mean,[3]; Day 0 (before treatment),5.05%
same,% HbA1c % Change vs DC,"[3]; Day 27, vs Diabetic Control",−2.26%
same,% HbA1c Mean,"[3]; Day 27, s.c. 0.3 mg/kg qd*3, 0.1 mg/kg q2d*7, 0.1 mg/kg q4d*2",5.03*** %
same,% change in body weight,[3]; day 0 to day 27 (FIG. 9),−8%
same,Blood Glucose AUC (Day 0-29) % Change Vs Control,"[4]; 12.155 nM, q2d*15",−41.78%
same,Blood Glucose AUC (Day 0-29) (mg/dL*days) Mean,"[4]; 12.155 nM, q2d*15",9867.9*** mg/dL*days
same,"Body Weight Change Day 29, % Change vs Day 0 Mean","[4]; 12.155 nM, q2d*15",0.7%
same,Cumulative Food Intake (g) Day 0-29 Mean,"[4]; 12.155 nM, q2d*15",92.0 g
same,% HbA1C Mean,"[4]; Day 0, 12.15 nM, q2d*15",7.66%
same,Insulin (ng/mL) Mean,"[4]; Day 0, 12.15 nM, q2d*15",18.7 ng/mL
same,% HbA1C Mean,"[4]; Day 14, 12.15 nM, q2d*15",7.04%
same,Insulin (ng/mL) Mean,"[4]; Day 14, 12.15 nM, q2d*15",37.5 ng/mL
same,% HbA1C Mean,"[4]; Day 29, 12.15 nM, q2d*15",6.47 *** %
same,Insulin (ng/mL) Mean,"[4]; Day 29, 12.15 nM, q2d*15",48.1** ng/mL
same,Blood Glucose AUC (Day 30-37) % Change vs Control,[4]; [7],−15.58%
same,Blood Glucose AUC (Day 30-37) (mg/dL*days) Mean,[4]; [7],3032.0 mg·days/dL
same,Blood Glucose AUC (Day 38-45) % Change vs Control,[4]; [7],−5.16%
same,Blood Glucose AUC (Day 38-45) (mg/dL*days) Mean,[4]; [7],3415.7 mg·days/dL
same,% HbA1C Mean,[4]; [8],7.8%
same,Delta HbA1C vs. DC,[4]; [8],−0.7
same,Insulin (ng/mL) Mean,[4]; [8],19.7 ng/mL
same,Body Weight % Change vs Day 45 Mean,"[4]; recovery study, earlier dose 12.155 nM",9.5%
